Measured values published in the NIST ThermoML archive (doi:10.1021/je050353j).
Numbers after ± are expanded uncertainties.

Columns and labels:
[1] = refractive index (Na D-line) (dimensionless); conditions: 298.15 K; 100 kPa; Liquid; Standard Abbe refractometry
[2] = relative permittivity at zero frequency (dimensionless); xn = mol fraction of the nth substance listed; conditions: 298.15 K, Liquid, Parallel plate capacitor

OCCO [1,2-ethanediol]
Conditions | refractive index
[1] | 1.4304 ± 0.0008

OCCO [1,2-ethanediol] + O
relative permittivity at zero frequency, [2]
Conditions | 100 kPa | 50000 kPa | 100000 kPa | 150000 kPa | 200000 kPa | 250000 kPa | 300000 kPa
x1 = 0.2 | 65.26 ± 0.14 | 66.72 ± 0.14 | 68.04 ± 0.14 | 69.3 ± 0.15 | 70.47 ± 0.15 | 71.6 ± 0.15 | 72.68 ± 0.15
x1 = 0.4 | 56.38 ± 0.12 | 57.74 ± 0.12 | 58.96 ± 0.13 | 60.14 ± 0.13 | 61.19 ± 0.13 | 62.23 ± 0.13 | 63.22 ± 0.13
x1 = 0.6 | 49.73 ± 0.11 | 50.99 ± 0.11 | 52.14 ± 0.11 | 53.21 ± 0.11 | 54.2 ± 0.12 | 55.15 ± 0.12 | 56.06 ± 0.12
x1 = 0.8 | 44.76 ± 0.1 | 45.95 ± 0.1 | 47.04 ± 0.1 | 48.05 ± 0.1 | 49 ± 0.1 | 49.89 ± 0.11 | 50.72 ± 0.11

OCC(O)CO [glycerol]
Conditions | refractive index
[1] | 1.4722 ± 0.0008

OCC(O)CO [glycerol] + O
relative permittivity at zero frequency, [2]
Conditions | 100 kPa | 50000 kPa | 100000 kPa | 150000 kPa | 200000 kPa | 250000 kPa | 300000 kPa
x1 = 0.2 | 63.79 ± 0.14 | 65.05 ± 0.14 | 66.28 ± 0.14 | 67.44 ± 0.14 | 68.55 ± 0.15 | 69.62 ± 0.15 | 70.65 ± 0.15
x1 = 0.4 | 55.26 ± 0.12 | 56.37 ± 0.12 | 57.44 ± 0.12 | 58.46 ± 0.12 | 59.43 ± 0.13 | 60.37 ± 0.13 | 61.28 ± 0.13
x1 = 0.6 | 49.52 ± 0.11 | 50.55 ± 0.11 | 51.5 ± 0.11 | 52.42 ± 0.11 | 53.29 ± 0.11 | 54.14 ± 0.11 | 54.95 ± 0.12
x1 = 0.8 | 45.48 ± 0.1 | 46.43 ± 0.1 | 47.33 ± 0.1 | 48.18 ± 0.1 | 48.99 ± 0.1 | 49.77 ± 0.11 | 50.53 ± 0.11

O [water] + OCCO
[2], x2 = 0
Conditions | relative permittivity at zero frequency
100 kPa | 78.39 ± 0.17
50000 kPa | 80.18 ± 0.17
100000 kPa | 81.88 ± 0.17
150000 kPa | 83.47 ± 0.18
200000 kPa | 85.01 ± 0.18
250000 kPa | 86.48 ± 0.18
300000 kPa | 87.94 ± 0.19
